Experimental data reported in the supplement of paper PMC10307832.

Legend:
Assay in all cases: relative viability (nuclei count vs DMSO), 5 days (fraction); higher = more cells survive
Crizotinib + Foretinib = compound: C[C@@H](Oc1cc(-c2cnn(C3CCNCC3)c2)cnc1N)c1c(Cl)ccc(F)c1Cl [Crizotinib] + COc1cc2c(Oc3ccc(NC(=O)C4(C(=O)Nc5ccc(F)cc5)CC4)cc3F)ccnc2cc1OCCCN1CCOCC1 [Foretinib] (partner 0.25 µM)
In short: (§1)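 Lung cancer cell lines in 1536-well plates were dosed by pin tool the day after seeding, either with one drug alone or with a fixed anchor-drug dose plus five library-drug doses (not always all listed) in √10 steps. After 5 days, cells were fixed and their nuclei stained in one step (final 0.05% Triton X-100, 1% formaldehyde, 1 ug/ml Hoechst), then counted on 4× images. Relative viability is the nuclei count in treated wells divided by that in vehicle wells. Values are medians of duplicate plates.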

Carfilzomib + Decitabine = compound: CC(C)C[C@H](NC(=O)[C@H](CCc1ccccc1)NC(=O)CN1CCOCC1)C(=O)N[C@@H](Cc1ccccc1)C(=O)N[C@@H](CC(C)C)C(=O)[C@@]1(C)CO1 [Carfilzomib] + Nc1ncn([C@H]2C[C@H](O)[C@@H](CO)O2)c(=O)n1 [Decitabine] (partner 2 µM)
In short: as §1

Crizotinib + Phenformin = compound: C[C@@H](Oc1cc(-c2cnn(C3CCNCC3)c2)cnc1N)c1c(Cl)ccc(F)c1Cl [Crizotinib] + N=C(N)NC(=N)NCCc1ccccc1 [Phenformin] (partner 250 µM)
In short: as §1

Crizotinib + Lapatinib = compound: C[C@@H](Oc1cc(-c2cnn(C3CCNCC3)c2)cnc1N)c1c(Cl)ccc(F)c1Cl [Crizotinib] + CS(=O)(=O)CCNCc1ccc(-c2ccc3ncnc(Nc4ccc(OCc5cccc(F)c5)c(Cl)c4)c3c2)o1 [Lapatinib] (partner 2 µM)
In short: as §1

Olaparib + Tozasertib = compound: O=C(c1cc(Cc2n[nH]c(=O)c3ccccc23)ccc1F)N1CCN(C(=O)C2CC2)CC1 [Olaparib] + Cc1cc(Nc2cc(N3CCN(C)CC3)nc(Sc3ccc(NC(=O)C4CC4)cc3)n2)n[nH]1 [Tozasertib] (partner 0.1 µM)
In short: as §1

NCI-H1793 was tested. Which relative viability (Crizotinib + Foretinib; first compound 0.03162 µM) did it give?
Its relative viability is 0.879.

What about the relative viability (Crizotinib + Foretinib; first compound 0.1 µM) of the same cell line?
The relative viability was 0.604.

And the relative viability (Crizotinib + Foretinib; first compound 1 µM)?
The relative viability was 0.705.

What about the relative viability (Carfilzomib + Decitabine; first compound 0.001 µM) of the same cell line?
The relative viability was 0.494.

And the relative viability (Carfilzomib + Decitabine; first compound 0.003162 µM)?
Its relative viability is 0.61.

And the relative viability (Carfilzomib + Decitabine; first compound 0.01 µM)?
Its relative viability is 0.531.

And the relative viability (Carfilzomib + Decitabine; first compound 0.03162 µM)?
Its relative viability is 0.562.

And the relative viability (Carfilzomib + Decitabine; first compound 0.1 µM)?
The relative viability was 0.194.

And the relative viability (Crizotinib + Phenformin; first compound 0.03162 µM)?
Its relative viability is 0.408.

What about the relative viability (Crizotinib + Phenformin; first compound 0.1 µM) of the same cell line?
The relative viability was 0.343.

And the relative viability (Crizotinib + Phenformin; first compound 1 µM)?
The relative viability was 0.388.

What about the relative viability (Crizotinib + Lapatinib; first compound 0.01 µM) of the same cell line?
The relative viability was 0.68.

What about the relative viability (Crizotinib + Lapatinib; first compound 0.03162 µM) of the same cell line?
Its relative viability is 0.737.

What about the relative viability (Crizotinib + Lapatinib; first compound 0.1 µM) of the same cell line?
Its relative viability is 0.749.

What about the relative viability (Crizotinib + Lapatinib; first compound 1 µM) of the same cell line?
Its relative viability is 0.802.

What about the relative viability (Olaparib + Tozasertib; first compound 0.08 µM) of the same cell line?
The relative viability was 0.324.

And the relative viability (Olaparib + Tozasertib; first compound 0.253 µM)?
The relative viability was 0.279.

And the relative viability (Olaparib + Tozasertib; first compound 2.53 µM)?
Its relative viability is 0.409.

And the relative viability (Olaparib + Tozasertib; first compound 8 µM)?
The relative viability was 0.358.
